Holding throughout (experiment): growth of human tumour cells (NCI), 48 h
Experiment [1] concerns 786-0 renal.
The subject of experiment [2] is SK-OV-3 ovarian.
The subject of experiment [3] is SR leukemia.
In experiment [4] the test system is UACC-257 melanoma.
The test system of experiment [5] is BT-549 breast.
The test system of experiment [6] is HOP-62 NSCLC.
Experiment [7] deals with NCI-H23 lung.
For experiment [8], the system named is UACC-62 melanoma.
Experiment [9] concerns T-47D breast.
In experiment [10] the test system is SK-MEL-28 melanoma.

Values joined by “and” are separate entries in the source; they are usually repeats but may differ in a detail not shown here. Identical values can stand only once.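 Values below derive from 48-hour exposures of cells grown in 96-well plates, with endpoints linearly interpolated between the two concentrations bracketing the appropriate inhibition level. At the GI50, growth is halved. Definition used: TGI = concentration required for complete inhibition of growth.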 Where only a bound is given, the exact number is not on record here.

`Clc1ccc(Cl)c(N/N=C\c2c[nH]c3ccccc23)c1`: the GI50 is 12800 nM in experiment [1]; 12.8 µM in experiment [2]; 4140 nM in experiment [3]; 15200 nM in [4]; 196 nM in experiment [5]; 15200 nM in [6]. Besides, the GI50 in experiment [7] was 14100 nM; in [8] it was 9920 nM. The TGI in experiment [1] was found to be 25.4 µM; in experiment [2], 27.2 µM; in experiment [3], 32.2 µM; in experiment [4], 28.9 µM; in experiment [5], 16.9 µM; in [6], 28.4 µM. Moreover, the TGI in experiment [7] amounted to 29.9 µM; in experiment [8] it was 22.6 µM.
With `CCCCc1ccc2nc(NC(=O)OC)[nH]c2c1`, the GI50 is 61.3 nM in experiment [1]; 0.0534 µM in [2]; 70.7 nM in experiment [5]; 126 nM in experiment [6]; 39.2 nM in experiment [9]; 87 nM in [10]. For the same compound, the GI50 was 142 nM in experiment [7] and 45.1 nM in experiment [8]. Further, the TGI was 29.3 µM in experiment [1]; > 47.1 µM in [2]; 12.4 µM in [5]; 26.6 µM in [6]; > 100 µM in experiment [9]; 35.3 µM in [10]. The TGI was > 100 µM in experiment [7] and > 59.1 µM in experiment [8].
Turning to `COc1ccc(CN2CCc3c(Cl)nc(N)nc3C2=O)c(OC)c1`, the GI50 in experiment [1] was 23900 nM; in [2], 24.2 µM; in [3], 1030 nM; in experiment [4], 19300 nM; in experiment [5] it was 16800 nM; in [6] it was 25700 nM. Further, the GI50 in experiment [9] is 11000 nM; in experiment [10], 15700 nM; in [7], 15800 nM; in experiment [8] it was 13500 nM. The TGI came to 48.1 µM in experiment [1]; 88 µM in experiment [2]; 10.7 µM in experiment [3]; 49.1 µM in [4]; 42.2 µM in experiment [5]; 63.9 µM in [6]. The TGI in experiment [9] turned out to be 39.8 µM; in experiment [10], 29.4 µM; in experiment [7], 32.2 µM; in experiment [8], 27.6 µM.
Take `O=c1c(Cl)nsnc1Cl`: the TGI was 3.32 µM in experiment [1]; 35 µM in experiment [2]; 4.43 µM in [3]; 26.8 µM in experiment [4]; 34.5 µM in [6]; > 31.6 µM in [9]. Besides, the TGI came out at 35.1 µM in experiment [10], 50.5 µM in experiment [7] and 33.4 µM in [8].
On to `Cc1cc(O)c2c(c1)C[C@@H](O)C1=C2C(=O)c2c(O)ccc(OC3CC(O)C(OC4CC(OC5CCC(OC6CC(O)C(OC7CC(OC8CCC(O)C(C)O8)C(O)C(C)O7)C(C)O6)C(C)O5)C(O)C(C)O4)C(C)O3)c2C1=O` (some centres not stated), for which the GI50 in experiment [1] was 490 nM and 280 nM; in experiment [3], 33 nM and 47.5 nM; in [4], 1380 nM and 844 nM; in [6], 1970 nM and 2760 nM; in experiment [9] it was 626 nM; in experiment [10] it was 267 nM and 1440 nM. The GI50 was 343 nM and 800 nM in experiment [7]; 237 nM and 315 nM in experiment [8]. Moreover, the TGI in [5] is 0.49 µM; in experiment [9], 0.352 µM and 2.54 µM; in [8], 0.134 µM and 0.658 µM and 1.18 µM.
Regarding `Cc1cc2c(-c3nc4ccccc4[nH]3)c(O)c(O)cc2c(O)c1-c1c(C)cc2c(-c3nc4ccccc4[nH]3)c(O)c(O)cc2c1O`, the GI50 in experiment [1] was 80.1 nM; in experiment [2] it was 0.045 µM; in experiment [3], 35 nM; in [4], 136 nM; in experiment [5], 23.5 nM; in experiment [6] it was 71.7 nM. Further, the GI50 in experiment [9] was 16.8 nM; in experiment [10] it was 97.6 nM; in [7] it was 28.9 nM. The TGI was 1.01 µM in experiment [1]; 0.283 µM in experiment [2]; > 50 µM in experiment [3]; 16.2 µM in experiment [4]; 1.13 µM in [5]; 0.864 µM in experiment [6]. Besides, the TGI in experiment [9] turned out to be 0.741 µM; in experiment [10] it was 15.8 µM; in experiment [7] it was 1.07 µM.
With `NC(=O)C/C=C/CC(N)=O`, the TGI in experiment [1], in experiment [2], in [4], in [5], in [6] and in [9] was > 100 µM in each case. The TGI in experiment [10], in experiment [7] and in experiment [8] was > 100 µM each time.
For `CCOP1(=O)OCC2OC(n3cnc4c(N)ncnc43)C(O)C2O1` (configuration not stated), the TGI in experiment [1], in [2], in [3], in experiment [4], in [5] and in experiment [6] was > 100 µM each time. Further, the TGI in experiment [9], in [10] and in experiment [8] was > 100 µM in each case.
Take `CCN(CC)CCn1c(=N)n(CC(O)c2ccc(Cl)c(Cl)c2)c2ccccc21` (configuration not stated): the GI50 in experiment [1] was 10900 nM; in [2], 11.9 µM; in experiment [3], 2120 nM; in experiment [5], 14500 nM; in [6], 11800 nM; in experiment [9], 4680 nM. Also, the GI50 is 2050 nM in [10], 15000 nM in experiment [7] and 1940 nM in experiment [8]. For the same compound, the TGI in experiment [1] stood at 23.1 µM; in experiment [2], 24.1 µM; in experiment [3] it was 5.56 µM; in experiment [5] it was 28 µM; in [6] it was 24.8 µM; in [9] it was 19.3 µM. For the same compound, the TGI in experiment [10] was 4.34 µM; in experiment [7], 32.5 µM; in experiment [8], 3.89 µM.
Take `Cc1nc2c(cnn2-c2ccnc3c(C(F)(F)F)cccc23)c(=O)o1`: the GI50 in experiment [1] was > 100000 nM; in experiment [2] it was > 100 µM; in [4] it was > 100000 nM; in experiment [5], > 100000 nM; in experiment [6], > 100000 nM; in experiment [9] it was > 100000 nM. Besides, the GI50 in [10] was > 100000 nM; in [7] it was > 100000 nM; in experiment [8] it was 93900 nM. Besides, the TGI in experiment [1], in [2], in [4], in [5], in experiment [6] and in experiment [9] was > 100 µM throughout. Further, the TGI in experiment [10], in experiment [7] and in [8] was > 100 µM each time.
Take `CC/C=C/[C@@H]1C=C[C@@H]2CCC[C@H]2[C@@H]1CC[C@H](O)[C@H](C)N`: the GI50 was 1720 nM in experiment [1]; 1.69 µM in experiment [2]; 1390 nM in [3]; 2490 nM in experiment [5]; 1470 nM in experiment [6]; 1520 nM in [9]. Moreover, the values for the GI50 in experiment [10], in [7] and in experiment [8] were 1660 nM, 1780 nM and 1610 nM, respectively. Further, the TGI in [1] stood at 3.09 µM; in experiment [2], 4.15 µM; in experiment [3], 3 µM; in experiment [5] it was 8.03 µM; in experiment [6] it was 2.8 µM; in experiment [9], 3.3 µM. The figures for the TGI in [10], in experiment [7] and in [8] were 3.01 µM, 3.98 µM and 2.96 µM, respectively.
Consider `COc1ccccc1/C=C1\COc2ccc(O)c(O)c2C1=O`, for which the GI50 in experiment [1] is 2200 nM; in [2] it was 4.68 µM; in experiment [3] it was 407 nM; in experiment [5] it was 2480 nM; in experiment [6] it was 3100 nM; in experiment [9], 2470 nM. The GI50 in experiment [10] is 1910 nM; in experiment [7] it was 2040 nM; in experiment [8] it was 1590 nM. Moreover, the TGI in experiment [1] was 6.72 µM; in experiment [2], > 100 µM; in [3] it was 11.9 µM; in [5], 7.53 µM; in experiment [6] it was 9.54 µM; in [9], > 100 µM. For the same compound, the figures for the TGI in [10], in experiment [7] and in experiment [8] were 4.44 µM, 6.11 µM and 3.29 µM, respectively.
For the compound `C=C1C(=O)O[C@@H]2[C@@H]3O[C@@](C)(CC/C=C(\C)CCC[C@@H]2C)[C@H](O)C[C@@H]13`, the GI50 was 7020 nM in [1]; 13.1 µM in [2]; 1290 nM in [4]; 1840 nM in experiment [5]; 2020 nM in [9]; 3130 nM in [10]. Moreover, the GI50 is 3710 nM in experiment [7] and 2050 nM in [8]. Also, the TGI in [1] was 20.3 µM; in experiment [2], 25.8 µM; in experiment [4], 4.27 µM; in experiment [5], 4.46 µM; in experiment [6] it was 24 µM; in experiment [9] it was 4.7 µM. For the same compound, the TGI worked out at 12.2 µM in experiment [10], 16.5 µM in experiment [7] and 5.11 µM in [8].

The record behind these values is PubChem BioAssay (NCI).
